Assay results from ChEMBL document CHEMBL5096210, “Discovery of Betulinic Acid Derivatives as Potent Intestinal Farnesoid X Receptor Antagonists to Ameliorate Nonalcoholic Steatohepatitis” (J Med Chem, 2022).
Calls of active or inactive are those of the source.

Assays:
[1] = target: T1, Bile acid receptor (Mus musculus) (UniProt Q60641); assay: In vivo antagonist activity against FXR in mouse assessed as stimulation of organoids growth in presence of FXR agonist; type: functional
T1 sequence (whole entry): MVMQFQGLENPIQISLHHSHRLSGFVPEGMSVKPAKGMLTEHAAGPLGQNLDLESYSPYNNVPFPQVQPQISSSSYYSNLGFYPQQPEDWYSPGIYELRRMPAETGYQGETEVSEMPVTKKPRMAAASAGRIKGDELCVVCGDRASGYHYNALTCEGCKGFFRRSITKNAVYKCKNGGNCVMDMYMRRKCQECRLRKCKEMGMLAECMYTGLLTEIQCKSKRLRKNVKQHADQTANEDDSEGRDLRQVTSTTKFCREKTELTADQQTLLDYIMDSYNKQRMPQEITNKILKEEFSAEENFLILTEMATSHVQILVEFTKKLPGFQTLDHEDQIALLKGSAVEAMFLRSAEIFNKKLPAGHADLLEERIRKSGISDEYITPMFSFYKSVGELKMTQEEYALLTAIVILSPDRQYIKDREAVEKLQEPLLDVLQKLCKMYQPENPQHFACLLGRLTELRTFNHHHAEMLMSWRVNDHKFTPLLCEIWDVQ

[2] = target: T1, Bile acid receptor (Mus musculus); assay: In vivo antagonist activity against FXR in mouse assessed as reduction in Fxr level in presence of CDCA; type: functional
[3] = target: T1, Bile acid receptor (Mus musculus); assay: In vivo antagonist activity against FXR in mouse assessed as reduction in Fgf15 level in presence of CDCA; type: functional
[4] = target: T1, Bile acid receptor (Mus musculus); assay: In vivo antagonist activity against FXR in mouse assessed as reduction in Fxr level in presence of GW4064; type: functional
[5] = target: T1, Bile acid receptor (Mus musculus); assay: In vivo antagonist activity against FXR in mouse assessed as reduction in Fgf15 level in presence of GW4064; type: functional
[6] = target: T1, Bile acid receptor (Mus musculus); assay: In vivo antagonist activity against FXR in mouse assessed as reduction in Shp level in presence of GW4064; type: functional
[7] = target: T1, Bile acid receptor (Mus musculus); assay: In vivo antagonist activity against FXR in microbeta depleted mouse assessed as reduction in taurocholic acid induced Shp mRNA expression in ileum at 10 mg/kg, po incubated for 2 to 48 hrs; type: functional, organism-based; conditions: time 2-48 hrs
[8] = Drug metabolism in C57BL6 mouse serum assessed as ((1S,3aS,5aR,5bR,7aR,9R,11aR,11bR,13aR,13bR)-9-hydroxy-1-isopropyl-5a,5b,8,8,11a-pentamethylicosahydro-1H-cyclopenta[a]chrysene-3a-carbonyl)glycine formation at 10 mg/kg, po administered as single dose measured after 2 hrs; type: ADME, organism-based; conditions: in vivo
[9] = Drug metabolism in C57BL6 mouse Gall bladder assessed as ((1S,3aS,5aR,5bR,7aR,9R,11aR,11bR,13aR,13bR)-9-hydroxy-1-isopropyl-5a,5b,8,8,11a-pentamethylicosahydro-1H-cyclopenta[a]chrysene-3a-carbonyl)glycine formation at 10 mg/kg, po administered as single dose measured after 2 hrs; type: ADME, organism-based; conditions: in vivo
[10] = tested on: Mus musculus; assay: Anti-NASH activity in GAN-induced mouse assessed as reduction in fasting glucose level at 10 mg/kg measured upto 120 mins; type: functional, organism-based
[11] = tested on: Mus musculus; assay: Anti-NASH activity in GAN-induced mouse assessed as increase in glucose tolerance at 10 mg/kg; type: functional, organism-based
[12] = tested on: Mus musculus; assay: Anti-NASH activity in GAN-induced mouse assessed as increase in insulin sensitivity at 10 mg/kg; type: functional, organism-based
[13] = tested on: Mus musculus; assay: Anti-NASH activity in GAN-induced […] mouse assessed as increase in rectal temperature at 10 mg/kg; type: functional, organism-based
[14] = tested on: Mus musculus; assay: Anti-NASH activity in GAN-induced […] mouse assessed as upregulation of Ucp1 expression in inguinal white adipose tissue at 10 mg/kg; type: functional, organism-based
[15] = tested on: Mus musculus; assay: Anti-NASH activity in GAN-induced […] mouse assessed as upregulation of […] expression in inguinal white adipose tissue at 10 mg/kg; type: functional, organism-based
[16] = species on record: Mus musculus; assay: Anti-NASH activity in GAN diet-induced […] mouse assessed as reduction in liver weight; type: functional, organism-based
[17] = species on record: Mus musculus; assay: Anti-NASH activity in GAN diet-induced […] mouse assessed as reduction in ALT level; type: functional, organism-based
[18] = species on record: Mus musculus; assay: Anti-NASH activity in GAN diet-induced […] mouse assessed as reduction in AST level; type: functional, organism-based
[19] = species on record: Mus musculus; assay: Anti-NASH activity in GAN diet-induced […] mouse assessed as decrease in hydroxyproline in liver; type: functional, organism-based
[20] = tested on: Liver; assay: Anti-NASH activity in GAN diet-induced […] mouse liver assessed as reduction in hepatocyte fat by H and E staining based analysis; type: functional, cell-based
[21] = tested on: Liver; assay: Anti-NASH activity in GAN diet-induced […] mouse liver assessed as reduction in hepatocyte collagen deposition by H and E staining based analysis; type: functional, cell-based
[22] = tested on: Liver; assay: Anti-NASH activity in GAN diet-induced […] mouse liver assessed as reduction in hepatocyte collagen deposition by Sirius red staining based analysis; type: functional, cell-based
[23] = tested on: Liver; assay: Anti-NASH activity in GAN diet-induced […] mouse liver assessed as reduced NAFLD activity score; type: functional
[24] = species on record: Mus musculus; assay: Anti-NASH activity in GAN diet-induced […] mouse assessed as reduction in Cd36 mRNA expression level; type: functional, organism-based
[25] = species on record: Mus musculus; assay: Anti-NASH activity in GAN diet-induced […] mouse assessed as upregulation of Ppara mRNA expression level; type: functional, organism-based
[26] = species on record: Mus musculus; assay: Anti-NASH activity in GAN diet-induced […] mouse assessed as reduction in A-sma mRNA expression; type: functional, organism-based
[27] = species on record: Mus musculus; assay: Anti-NASH activity in GAN diet-induced […] mouse assessed as reduction in Tgf-beta level; type: functional, organism-based
[28] = species on record: Mus musculus; assay: Anti-NASH activity in GAN diet-induced […] mouse assessed as suppression of Fgf15 expression; type: functional, organism-based
[29] = species on record: Mus musculus; assay: Anti-NASH activity in GAN diet-induced […] mouse assessed as upregulation of Cyp7a1 mRNA expression in liver; type: functional, organism-based
[30] = species on record: Mus musculus; assay: Anti-NASH activity in GAN diet-induced […] mouse assessed as upregulation of Cyp8b1 mRNA expression in liver; type: functional, organism-based
[31] = species on record: Mus musculus; assay: Anti-NASH activity in GAN diet-induced […] mouse assessed as upregulation CYP7A1 protein by Western blot analysis; type: functional, organism-based
[32] = species on record: Mus musculus; assay: Anti-NASH activity in GAN diet-induced […] mouse assessed as decrease in cholesterol in liver; type: functional, organism-based
[33] = tested on: Mus musculus; assay: Anti-NASH activity in HFMCD diet-induced […] mouse assessed as reduction in AST serum level at 30 mg/kg, po for 4 weeks; type: functional, organism-based
[34] = species on record: Mus musculus; assay: Anti-NASH activity in HFMCD diet-induced […] mouse assessed as decrease in collagen deposition by Sirius red staining based analysis; type: functional, organism-based
[35] = species on record: Mus musculus; assay: Anti-NASH activity in GAN diet-induced […] mouse assessed as reduction of bile acid pool size in ileum; type: functional, organism-based

CCCC(=O)O[C@@H]1CC[C@]2(C)[C@H]3CC[C@@H]4[C@H]5[C@H](C(C)C)CC[C@]5(C(=O)NCC(=O)O)CC[C@@]4(C)[C@]3(C)CC[C@H]2C1(C)C
Metabolite_Detected: Drug metabolism [8] | Drug metabolism [9]
active: Activity [1] | Activity [2] | Activity [3] | Activity [4] | Activity [5] | Activity [6] | Activity [7] | Activity [10] | Activity [11] | Activity [12] | Activity [13] | Activity [14] | Activity [15] | Activity [16] | Activity [17] | Activity [18] | Activity [19] | Activity [20] | Activity [21] | Activity [22] | Activity [23] | Activity [24] | Activity [25] | Activity [26] | Activity [27] | Activity [28] | Activity [29] | Activity [30] | Activity [31] | Activity [32] | Activity [33] | Activity [34] | Activity [35]
